The target in series [1] is T1, human Edg-4 receptor (Homo sapiens, UniProt Q9HBW0).
T1 construct: IC50 Edg-4; other: agonist, calcium mobilization; potency relative to compound 101; calcium response (agonist)
The experiment in a line: Calcium mobilization assay (FLIPR), HTC rat hepatoma cells transfected with human Edg-4. Type of series: cell-based. To be noted: for pIC50: inhibition; for pIC50 / pEC50: calcium mobilization; for potency relative to compound 101: dose response curve, FIG. 2; for inhibition of LPA-induced calcium mobilization, human Edg-4: clonal HTC cell line, FIG. 11; for pEC50: agonist. An excerpt:
(§1) LPA receptors such as Edg-4, couple to calcium effector pathways, and result in increases in intracellular calcium following receptor activation (An et al., Molecular Pharmacology, 54:881-888, 1998, incorporated herein by reference). This biological response lends itself to a very efficient, high-throughput screen using a Fluorescence Imaging Plate Reader (FLIPR; Molecular Devices, Sunnyvale, Calif.). The FLIPR system is a real-time, cell-based assay system with continuous fluorescence detection using a cooled CCD camera. The FLIPR system was used to developing an Edg-4 receptor screen. Rat hepatoma cells stably expressing Edg-4 receptor were plated on 384-well plates and loaded with a calcium dye loading kit (Molecular Devices, Sunnyvale, Calif.) for 1 hour at room temperature. Cells were then placed on the FLIPR^354 (Molecular Devices, Sunnyvale, Calif.) and excited by an argon laser at 488 nm. The data for the entire 384-well plate was updated every second. An integrated robotic pipettor allowed for simultaneous compound addition into each individual well in the plate.

For series [2], the system named is human Edg-4 receptor. Described as above. Type of series: cell-based. To be noted: Edg-4 relative to other Edg receptors; for Fold-selectivity for Edg-4 (IC50): antagonists; for Fold Selectivity for Edg-4 (EC50): agonists.
Excerpt: as §1

The next series deals with T2, Edg-2 (Homo sapiens, UniProt Q92633).
T2 construct: expressed in transfected cells; host or cells: HTC rat hepatoma cells (from the earlier reading)
The experiment in a line: Calcium mobilization assay (FLIPR), HTC cells expressing Edg 2. Particulars: for pIC50: inhibition; for pEC50: agonist. Type of series: cell-based. In general terms: A change in cytosolic calcium serves as a functional read-out for many receptors and channels.

In the next series the target is T3, Edg-3 (Homo sapiens, UniProt Q99500).
T3 construct: expressed in transfected cells; host or cells: HTC rat hepatoma cells (from the earlier reading)
The experiment in a line: Calcium mobilization assay (FLIPR), HTC cells expressing Edg 3. To be noted: for pIC50: inhibition; for pEC50: agonist. It is filed as cell-based.

Another series concerns HUVEC cells. The series can be described thus: Migration assay, SIP induced chemotaxis. It is filed as cell-based, human. To be noted: FIG. 10. The method, then: (§2) Cells were plated in a 24 well format using Fluoroblok filter insert plates ([…]) or Fluoroblok matrigel coated filter insert plates (Becton Dickinson, San Diego, Calif.). The assay was a modified Boyden Chamber assay in which a cell suspension (1 ×10^5 cells/ml) was prepared in serum free medium and added to the top chamber. LPA or SIP (doses ranged from 0.1-10 μM in serum free medium) was added to the bottom chamber. Following a 20-24 hour incubation period, the number of cells migrating or invading into the lower chamber was quantitated by transferring the filter insert into a fresh 24-well plate containing 4 μg/ml calcein AM (Molecular Probes, Sunnyvale, Calif.) in Hank's Balanced Salt Solution and staining for one hour.
(§3) Detection was via fluorescent readout at 450 nm excitation/530 nm emission using a fluorimeter. The level of fluorescence correlated with cell number.

The target of another series is T4, Edg-1 (Homo sapiens, UniProt P21453).
T4 construct: expressed in transfected cells; host or cells: HTC rat hepatoma cells (from the earlier reading)
The series can be described thus: Calcium mobilization assay (FLIPR), HTC cells expressing Edg 1. Type of series: cell-based. Particulars: for pIC50: inhibition; for pEC50: agonist.

Another series deals with T5, Edg-7 (Homo sapiens, UniProt Q9UBY5).
T5 construct: expressed in transfected cells; host or cells: HTC rat hepatoma cells (from the earlier reading)
T5 sequence (Q9UBY5 1-353): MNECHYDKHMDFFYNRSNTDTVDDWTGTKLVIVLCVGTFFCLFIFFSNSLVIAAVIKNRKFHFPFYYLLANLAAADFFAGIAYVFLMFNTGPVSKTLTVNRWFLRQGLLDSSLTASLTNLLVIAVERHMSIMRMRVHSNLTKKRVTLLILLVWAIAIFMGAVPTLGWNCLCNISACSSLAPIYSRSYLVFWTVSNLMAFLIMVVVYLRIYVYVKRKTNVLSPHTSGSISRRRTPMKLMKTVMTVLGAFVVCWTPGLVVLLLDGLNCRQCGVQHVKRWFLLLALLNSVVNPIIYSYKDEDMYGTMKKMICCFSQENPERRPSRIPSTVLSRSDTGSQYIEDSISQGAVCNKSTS
The experiment in a line: Calcium mobilization assay (FLIPR), HTC cells expressing Edg 7. To be noted: calcium mobilization; for pIC50: inhibition; for pEC50: agonist. Type of series: cell-based.

Another series concerns the target T6, Edg-8 (Homo sapiens, UniProt Q9H228).
T6 construct: expressed in transfected cells; host or cells: HTC rat hepatoma cells (from the earlier reading)
The experiment in a line: Calcium mobilization assay (FLIPR), HTC cells expressing Edg 8. Type of series: cell-based. To be noted: for pIC50: inhibition; for pEC50: agonist.

Another series concerns the target T7, Edg-6 (Homo sapiens, UniProt O95977).
T7 construct: expressed in transfected cells; host or cells: HTC rat hepatoma cells (from the earlier reading)
T7 sequence (O95977 1-384): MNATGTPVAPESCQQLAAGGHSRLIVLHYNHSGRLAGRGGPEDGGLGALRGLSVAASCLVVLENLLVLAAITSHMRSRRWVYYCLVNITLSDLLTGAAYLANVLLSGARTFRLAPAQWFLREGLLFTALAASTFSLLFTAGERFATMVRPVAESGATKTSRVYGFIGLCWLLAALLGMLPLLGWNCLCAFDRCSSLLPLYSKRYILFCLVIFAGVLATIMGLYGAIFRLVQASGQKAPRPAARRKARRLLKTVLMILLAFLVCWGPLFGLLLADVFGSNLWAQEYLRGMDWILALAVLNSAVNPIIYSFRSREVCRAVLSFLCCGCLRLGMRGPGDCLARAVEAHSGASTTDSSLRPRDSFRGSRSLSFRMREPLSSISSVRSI
The series can be described thus: Calcium mobilization assay (FLIPR), HTC cells expressing Edg 6. Particulars: for pIC50: inhibition; for pEC50: agonist. It is filed as cell-based.

The target of a further series is T8, Edg-5 (Homo sapiens, UniProt O95136).
T8 construct: expressed in transfected cells; host or cells: HTC rat hepatoma cells (from the earlier reading)
The experiment in a line: Calcium mobilization assay (FLIPR), HTC cells expressing Edg 5. Particulars: for pIC50: inhibition; for pEC50: agonist. It is filed as cell-based.

A further series concerns rat Edg-4 receptor. The series can be described thus: LPA induced calcium mobilization, HTC cells transfected with pooled rat Edg-4 clones. It is filed as cell-based. To be noted: pooled HTC population, FIG. 12.
Excerpt: as §1

The target in another series is T9, mouse Edg-4 receptor (Mus musculus, UniProt Q9JL06).
T9 construct: expressed in transfected cells; host or cells: HTC rat hepatoma cells, pooled population
The series can be described thus: LPA induced calcium mobilization, HTC cells transfected with pooled mouse Edg-4 clones. It is filed as cell-based. Particulars: pooled HTC population, FIG. 13.
Excerpt: as §1

Series [3] is described as follows: Calcium mobilization assay, Null. It is filed as cell-based. Particulars: agonist.
Excerpt: as §1

For series [4], the system named is CaOV3 human ovarian cancer cells. The series can be described thus: Migration assay, LPA stimulated chemotaxis. It is filed as cell-based. To be noted: CaOV3, FIG. 9. The method, then:
as §2, §3
For most cells types, no further manipulation was required. For CaOV3 human ovarian cancer cells, however, it was necessary that the cells be serum starved overnight prior to preparing the cell suspension. In addition, the filter inserts were coated with a solution of 1 mg/ml rat-tail Collagen I (BD, SanDiego, Calif.).

pEC50, pIC50: −log10 of the molar value. “Also recorded” adds a separate entry of the source.

T2 sequence (Q92633 whole entry): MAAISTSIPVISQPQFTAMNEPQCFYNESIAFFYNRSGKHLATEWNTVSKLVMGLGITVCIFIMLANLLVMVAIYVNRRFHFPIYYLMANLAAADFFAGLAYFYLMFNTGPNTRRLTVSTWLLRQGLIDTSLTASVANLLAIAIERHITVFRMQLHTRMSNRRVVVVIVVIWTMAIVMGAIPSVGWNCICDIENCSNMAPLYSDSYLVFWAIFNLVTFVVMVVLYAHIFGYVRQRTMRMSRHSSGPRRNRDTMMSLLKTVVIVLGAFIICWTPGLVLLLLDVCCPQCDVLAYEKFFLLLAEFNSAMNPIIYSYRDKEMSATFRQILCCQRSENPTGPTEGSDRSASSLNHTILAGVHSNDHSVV
T1 sequence (Q9HBW0 1-340 limits assumed): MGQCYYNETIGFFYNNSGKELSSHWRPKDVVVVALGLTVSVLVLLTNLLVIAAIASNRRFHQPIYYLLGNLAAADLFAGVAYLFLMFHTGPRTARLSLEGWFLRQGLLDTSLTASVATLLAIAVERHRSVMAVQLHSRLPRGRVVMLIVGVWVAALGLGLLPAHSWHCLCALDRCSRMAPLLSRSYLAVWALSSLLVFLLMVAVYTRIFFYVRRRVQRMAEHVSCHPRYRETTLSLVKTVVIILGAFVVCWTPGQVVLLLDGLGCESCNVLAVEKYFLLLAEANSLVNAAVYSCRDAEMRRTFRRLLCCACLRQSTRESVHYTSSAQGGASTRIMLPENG
T8 sequence (O95136 whole entry): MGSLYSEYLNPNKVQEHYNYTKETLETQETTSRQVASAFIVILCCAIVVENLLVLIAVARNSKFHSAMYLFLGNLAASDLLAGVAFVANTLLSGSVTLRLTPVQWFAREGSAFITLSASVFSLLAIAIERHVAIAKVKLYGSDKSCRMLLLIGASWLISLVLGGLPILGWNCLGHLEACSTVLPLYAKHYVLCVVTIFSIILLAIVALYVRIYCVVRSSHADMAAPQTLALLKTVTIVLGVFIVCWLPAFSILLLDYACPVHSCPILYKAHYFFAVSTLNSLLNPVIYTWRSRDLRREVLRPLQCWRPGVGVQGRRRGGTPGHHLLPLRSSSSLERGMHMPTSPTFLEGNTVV
T3 sequence (Q99500 whole entry): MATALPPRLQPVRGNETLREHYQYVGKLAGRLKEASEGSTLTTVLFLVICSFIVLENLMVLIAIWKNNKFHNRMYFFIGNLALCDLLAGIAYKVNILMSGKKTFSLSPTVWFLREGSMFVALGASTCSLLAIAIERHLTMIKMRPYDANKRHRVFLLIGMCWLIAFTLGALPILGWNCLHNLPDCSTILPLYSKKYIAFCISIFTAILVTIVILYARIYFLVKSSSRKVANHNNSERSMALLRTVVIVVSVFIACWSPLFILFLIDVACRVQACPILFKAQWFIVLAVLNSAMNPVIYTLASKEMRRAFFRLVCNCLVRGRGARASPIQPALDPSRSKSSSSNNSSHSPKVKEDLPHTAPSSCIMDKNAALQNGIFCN
T6 sequence (Q9H228 whole entry): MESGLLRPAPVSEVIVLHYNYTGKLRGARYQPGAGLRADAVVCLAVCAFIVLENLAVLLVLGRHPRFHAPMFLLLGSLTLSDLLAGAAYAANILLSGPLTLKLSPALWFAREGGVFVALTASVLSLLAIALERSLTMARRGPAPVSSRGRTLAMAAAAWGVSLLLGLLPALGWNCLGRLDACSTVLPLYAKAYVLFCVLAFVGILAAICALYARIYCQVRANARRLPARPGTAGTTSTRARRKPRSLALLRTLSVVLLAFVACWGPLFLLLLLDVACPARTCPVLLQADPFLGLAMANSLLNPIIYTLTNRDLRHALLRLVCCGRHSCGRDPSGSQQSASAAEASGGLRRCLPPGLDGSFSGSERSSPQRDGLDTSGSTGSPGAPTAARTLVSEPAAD
T4 sequence (P21453 whole entry): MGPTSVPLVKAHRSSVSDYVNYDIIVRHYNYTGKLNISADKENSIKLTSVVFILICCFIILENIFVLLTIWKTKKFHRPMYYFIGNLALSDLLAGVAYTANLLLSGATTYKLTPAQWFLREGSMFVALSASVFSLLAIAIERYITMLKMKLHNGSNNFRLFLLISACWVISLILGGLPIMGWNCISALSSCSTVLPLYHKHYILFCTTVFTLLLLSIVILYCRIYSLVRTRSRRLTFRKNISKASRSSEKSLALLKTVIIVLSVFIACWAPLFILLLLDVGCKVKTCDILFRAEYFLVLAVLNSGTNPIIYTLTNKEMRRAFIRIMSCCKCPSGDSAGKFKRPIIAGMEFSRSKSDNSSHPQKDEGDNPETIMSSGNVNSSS
T9 sequence (Q9JL06 whole entry): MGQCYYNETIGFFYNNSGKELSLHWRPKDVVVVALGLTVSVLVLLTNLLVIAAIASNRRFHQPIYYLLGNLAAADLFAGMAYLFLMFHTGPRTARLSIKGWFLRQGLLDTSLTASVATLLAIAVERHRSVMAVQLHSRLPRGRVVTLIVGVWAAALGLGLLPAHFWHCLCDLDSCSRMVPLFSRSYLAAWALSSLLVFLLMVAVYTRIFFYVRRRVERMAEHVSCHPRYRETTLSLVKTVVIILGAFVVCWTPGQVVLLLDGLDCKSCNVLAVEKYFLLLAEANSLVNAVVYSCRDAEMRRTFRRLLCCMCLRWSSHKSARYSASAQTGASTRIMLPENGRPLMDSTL

For `O=C1NN=C(c2ccccc2)C(c2c[nH]c3ccccc23)N1` (single isomer, unassigned; (+)) [(+)-121, (+)-5-(1H-Indol-3-yl)-6-phenyl-4,5-dihydro-2H-[1,2,4]triazin-3-one], the melting point – broadly, the temperature of the solid-liquid transition – turned out to be 281 °C.

Turning to `O=C(CC(=O)C(F)(F)F)Nc1cc(-c2ccc(Cl)c(Cl)c2)n[nH]1` [Compound 103, N-[5-(3,4-dichloro-phenyl)-2H-pyrazol-3-yl]4,4,4-trifluoro-3-oxo-butyramide], the negative logarithm of the IC50 (pIC50) (commonly the IC50 on a negative log10 scale, so that one unit is a factor of ten) on human Edg-4 receptor [1] is 6.49; on Edg-2, under 4.70; on Edg-3, under 4.70; on Edg-1, under 4.70; at Edg-7, under 4.70; at Edg-8, under 4.70. Moreover, the pIC50 at Edg-6 and on Edg-5 was under 4.70 each time. The “Fold-selectivity for Edg-4 (IC50)” value in the series with human Edg-4 receptor [2] was over 62.5. Moreover, the “inhibition of SIP induced chemotaxis” value in the series on HUVEC cells is recorded as “did not inhibit”.

On to `COc1ccc(-c2cc(NC(=O)CC(=O)C(F)(F)F)[nH]n2)cc1` [Compound 105, 4,4-4-trifluoro-N-[5-(4-methoxy-phenyl)-2-pyrazol-3-yl]-3-oxo-butyramide], for which the “potency relative to compound 101” value on human Edg-4 receptor [1] is listed as “less potent than compound 101”.

With `O=C(CC(=O)C(F)(F)F)Nc1cc(-c2ccc(F)cc2)n[nH]1` [Compound 107], the “inhibition of LPA-induced calcium mobilization, human Edg-4” value on human Edg-4 receptor [1] was “dose dependent inhibition”. In addition, the “inhibition of LPA-induced calcium mobilization, rat Edg-4” value in the series with rat Edg-4 receptor was “dose dependent inhibition”. The “inhibition of LPA-induced calcium mobilization, mouse Edg-4” value on mouse Edg-4 receptor is recorded as “dose dependent inhibition”.

`COc1cccc(-c2cc(NC(=O)CC(=O)C(F)(F)F)[nH]n2)c1` [Compound 113, 4,4,4-trifluoro-N-[5-(3-methoxy-phenyl)-2H-pyrazol-3-yl]-3-oxo-butyramide]: the “inhibition of LPA-induced calcium mobilization, human Edg-4” value at human Edg-4 receptor [1] was “dose dependent inhibition”. Also, in the series with rat Edg-4 receptor, the “inhibition of LPA-induced calcium mobilization, rat Edg-4” value is “dose dependent inhibition”. The “inhibition of LPA-induced calcium mobilization, mouse Edg-4” value at mouse Edg-4 receptor is on record as “dose dependent inhibition”.

For the compound `O=C1NN=C(c2ccccc2)C(c2c[nH]c3ccccc23)N1` (centres unmarked) [Compound 121, 5-(1H-Indol-3-yl)-6-phenyl-4,5-dihydro-2H-[1,2,4]triazin-3-one], the pIC50 at human Edg-4 receptor [1] is 5.44; on Edg-2 it was under 4.70; at Edg-3, under 4.70; at Edg-1 it was under 4.70; at Edg-7, under 4.70; on Edg-8, under 4.70. Besides, the pIC50 on Edg-6 and on Edg-5 was under 4.70 each time. Also, the “Fold-selectivity for Edg-4 (IC50)” value in the series with human Edg-4 receptor [2] is listed as over 5.6.

For the compound `FC(F)(F)c1ccc2nnc(-c3cccc(Cl)c3Cl)n2c1` [Compound 129, 3-(2,3-dichlorophenyl)-6-trifluoromethyl[1,2,4]triazolo[4,3-a]pyridine], the pEC50 (in general, −log10 of the EC50, conventionally taken in molar units) at human Edg-4 receptor [1] was 5.27; at Edg-2 it was under 4.60; in [3] it was under 4.60; on Edg-3 it was under 4.60; at Edg-1 it was under 4.60; on Edg-7 it was under 4.60. In addition, the pEC50 on Edg-8, at Edg-6 and on Edg-5 was under 4.60 in each case. The “Fold Selectivity for Edg-4 (EC50)” value in the series on human Edg-4 receptor [2] is listed as over 4.6.

As for `FC(F)(F)c1ccc2nnc(-c3c(Cl)cccc3Cl)n2c1` [Compound 131, 3-(2,6-dichlorophenyl)-6-trifluoromethyl-[1,2,4]triazolo [4,3-a]pyridine], the pEC50 at human Edg-4 receptor [1] is 5.00; at Edg-2 it was under 4.60; in series [3] it was under 4.60; at Edg-3, under 4.60; on Edg-1 it was under 4.60; at Edg-7, under 4.60. In addition, the pEC50 on Edg-8, at Edg-6 and on Edg-5 was under 4.60 each time. In addition, the “Fold Selectivity for Edg-4 (EC50)” value in the series on human Edg-4 receptor [2] is over 2.5.

In the case of “N-[5-(3,4-dichloro-phenyl)-2H-pyrazol-3-yl]4,4,4-trifluoro-3-oxo-butyramide [Compound 103]”, the “inhibition of calcium response elicited by agonist 125” value at human Edg-4 receptor [1] (HTC cells transfected with human Edg-4, FIG. 15) is given as “inhibited”. In addition, at human Edg-4 receptor [1], the “inhibition of LPA-induced calcium mobilization, human Edg-4” value was “dose dependent inhibition” and the “potency relative to compound 101” value is given as 2-3 fold. In addition, in series [4], the “inhibition of LPA stimulated chemotaxis” value is reported as “effectively blocked; also recorded: did inhibit”. In addition, the “inhibition of LPA-induced calcium mobilization, rat Edg-4” value in the series with rat Edg-4 receptor is given as “dose dependent inhibition”. For the same compound, the “inhibition of LPA-induced calcium mobilization, mouse Edg-4” value at mouse Edg-4 receptor is recorded as “dose dependent inhibition”.
